# According to patent US20030175690A1 (priority 1999, published 2003):
# Biological target: NL4-3 protease (Human immunodeficiency virus type 1 group M subtype B, UniProt P12497)
# Conditions: reference clone reconstructed with NL4-3 protease; HeLa cells; drug 0.1 μM; supernatant 48 hours after transfection
# Procedure: Positive colonies were grown in 5 mL LB medium, the plasmids extracted, and HeLa cells grown to 50% confluence on an 8-well plate (Costar), transfected by lipofectin (Bethesda Research Laboratories) in triplicate using pΔproΔRTΔenv (0.5 μg) containing the exogenous HIV-1 PR sequences. […] The degree of inhibition of viral expression was documented by the ratio between the levels of p24Ag detected in the presence and in the absence of the anti-viral compound (R=p24Ag^drug,/p24Ag^medium). The percent Sensitivity Index (SI%=100×R^reference/R^sample) was introduced to normalise differences due to cell related variables among different experiments. Proteases displaying SI% values greater than 80% were considered fully sensitive; partially sensitive (intermediate phenotype) between 80 and 60%; and resistant when lower than 60%.
# The HIV-1 PR coding sequences amplified from the 13 culture supernatants or directly from the 6 plasma samples were cloned into the pΔproΔRTΔenv nonreplicative backbone, and the resulting plasmids were transfected into semiconfluent HeLa cells. After 48 hours of incubation the supernatants were assayed for HIV-1 p24Ag concentration.
# This index was determined by normalising the R value of each clinical sample (R^sample) to that of the NL4-3 reference strain (R^reference) evaluated in parallel experiment, according to the function SI%=100×R^reference/R^sample.
structure (smiles),measurement,value
"CC(C)c1nc(CN(C)C(=O)N[C@H](C(=O)N[C@@H](Cc2ccccc2)C[C@H](O)[C@H](Cc2ccccc2)NC(=O)OCc2cncs2)C(C)C)cs1 [RTV, ritonavir]","production of HIV-1 p24Ag by the reference clone in the presence of drug, compared with PI-free medium",strongly inhibited
